From patent EP0454429B1, “Use of 15-dehydroxy-16-oxoprostaglandin derivatives in the treatment of allergic diseases” (R-TECH UENO, LTD., priority 1990, dated 1991) come the findings set out here.

The test system of assay [1] is increase in the airway resistance by histamine. As to the kind of experiment: Inhibition of histamine-induced increase in airway resistance, test compound i.v. (Test Example 2). The class given is in vivo. The conditions noted are these: one minute before histamine (3 µg/kg), anesthetized guinea pig. As to the method:
A guinea pig was intraperitoneally anesthetized with 1.0-1.2 g/kg urethane (Katayama Kagaku, Japan). The test animal was cannulated through the common carotid […] and the trachea, and then pancuronium bromide was intravenously administered at 0.3 mg/kg to stop the spontaneous respiration of the test animal. The animal was artificially respired using a respirater for a small animal (SN-480-7, Shinano Seisakusho, Japan) and bronchospasm transducer (7020, Ugo Basile). The overflowing air at 6-9 ml(air)/time, 60 times/minute and loading pressure of 10 cm H2O was recorded on a recorder (056-1001, Hitachi Seisakusho, Japan) through the bronchospasm transducer. Histamine (3 µg/kg) was administered several times at 30 minutes intervals, and when the increase in the airway resistance by histamine was established, the test compounds were intravenously administered one minute before the administration of histamine (3 µg/kg) to induce airway constriction. The difference of airway resistance before and after the administration of histamine was taken as 100% and activity of test compounds was shown in terms of percent inhibition of the increase due to histamine.

The test system of the next assay is contraction by histamine. The assay can be described thus: Inhibition of histamine-induced contraction of isolated guinea pig trachea (Test Example 1). Type of assay: cell-based. The conditions noted are these: guinea pig trachea contracted with 5.4x10^-4M histamine, cumulative addition every 6 minutes; for IC20: concentration for 20% inhibition; for IC50: concentration for 50% inhibition. As to the method:
(§1) A guinea pig was sacrificed by knocking at the occipital region and then bleeding from the femoral artery. The trachea was removed, incised in the longitudinal direction at the opposite side of the smooth muscle and sectioned into sections of about 1 to 1.5 cm along the cartilage. Seven or eight sections were linked by a silk thread in chains. The sample was stretched by 1.0 g of tension in 15 ml of Tyrode's solution at 37°C under flow of the mixed gas of 95% O2 and 5% CO2. After resting for 60 to 90 minutes for stabilization, the sample was contracted with 5.4x10^-4M histamine and when the construction reached the constant value, the test compounds were accumulately added every 6 minutes, and the change in tension was recorded on a recorder (T-626DS, Nippon Denshi Kagaku, Japan) through an isometric transducer (1T-1, LABOX, Fukukensha, Japan).
Rate of inhibition by the test compounds of the contraction by histamine was expressed in percent, and IC20 and IC50 values were calculated as the concentration of the test compounds for 20% and 50% […], respectively.

In the next assay the test system is conjunctive. The assay can be described thus: Histamine-induced conjunctival inflammation and dye leakage, ophthalmic administration (Test Example 6). The class given is in vivo, Female Wistar rats. Also on record: Weight of Conjunctive (Mean±S.D.): dose or concentration left out as unconfirmed. The settings on record: for Weight of Conjunctive (Mean±S.D.): 3 minutes before Evans Blue and subconjunctival histamine, 30 minutes, control 41.5±2.0; for Dye (µg/part): dye extracted from conjunctive, absorption at 625 nm, control 8.26±0.52. As to the method:
Female Wistar rats (weight: 90g) were used as the test animals. The animals received the test compounds and, 3 minutes after, 0.5ml of 0.5% Ebans Blue/physiological saline was administered through the caudal vein. Then, immediately after, 0.05ml of 0.1% histamine hydrochloride/physiological saline was injected subconjunctivally at an upper eyelid. After 30 minutes, the animals were sacrificed by vertebral cervial dislocation and the scalp was peeled away towards the eyelid. Part of skin and conjunctive showing inflammation was cut off and weighed. Then, said conjunctive was minced and extracted overnight with 4ml […] at 40°C with shaking. The dye in the conjunctive was assayed by measuring absorption of the extract at 625 nm. […] Control animals received the same amount of the physiological saline.

Assay [2] concerns contraction by leukotriene D4. The assay can be described thus: Inhibition of leukotriene D4-induced contraction of isolated guinea pig trachea (Test Example 3). Type of assay: cell-based. The settings on record: guinea pig trachea contracted with 1x10^-8M leukotriene D4; for IC20: concentration for 20% inhibition; for IC50: concentration for 50% inhibition. The procedure: as §1, with “1x10^-8M leukotriene D4” for “5.4x10^-4M histamine”, “Densi” for “Denshi”
Rate of inhibition by the test compounds of the contraction by leukotriene D4 was expressed in percent, and IC20 and IC50 values were calculated as the concentration of the test compounds for 20% and 50% […], respectively.

Assay [3] relates to platelet activating factor (PAF). The assay can be described thus: Inhibition of PAF-induced increase in airway resistance, test compound i.v. (Test Example 4). The settings on record: dose 10µg/kg i.v. one minute before PAF (50 ng/kg i.v.), n=2. The class given is in vivo, guinea pig. The procedure: A guinea pig was intraperitoneally anesthetized with 1.2 g/kg urethane (Katayama Kagaku, Japan). The test animal was cannulated through the common carotid […] and the trachea, and then pancuronium bromide was intravenously administered at 0.3 mg/kg to stop the spontaneous respiration of the test animal. The animal was artificially respired using a respirater for a small animal (SN-480-7, Shinano Seisakusho, Japan) and bronchospasm transducer (7020, Ugo Basile). The overflowing air at 7-10 ml(air)/time, 60 times/minute and loading pressure of 10 cm H2O was recorded on a recorder (056-1001, Hitachi Seisakusho, Japan) through the bronchospasm transducer. When the base line was stabilized, platelet activating factor (PAF) (50 ng/kg) was intravenously administered. The increase in the airway resistance was determined taking the value at the complete occlusion of trachea as the maximum contraction (100%). The test compounds were intravenously administered one minute before the administration of PAF. The difference of airway resistance before and after the administration of 50 ng/kg PAF was taken as 100% and activity of test compound was shown in terms of percent inhibition of the increase due to PAF.

Another assay relates to PCA reaction. The assay can be described thus: Passive cutaneous anaphylaxis (PCA) reaction in sensitized rats (Test Example 7). The class given is in vivo, Male Crj Wistar rats. The settings on record: Dose 10 µg/kg intravenously, n=16. The procedure:
Male Crj Wistar rats (7 weeks old) were passively sensitized by injecting 50µl of diluted rat anti-EA (egg albumin) antiserum at the dorsal skin.
After 48 hours, 1 ml of a mixture consisting of equal amount of 1% EA (egg albumin) as the antigen in physiological saline and 1% Evans Blue in physiological saline was injected in the caudal vein to elicit the PCA reaction. After 30 minutes, the animals were killed by deep anesthetization and dorsal skin was ablated. The major and minor axes of reacted part, i.e. pigment-leaking site were measured and the average value of them was taken as the diameter, from which the area was calculated.
Then said site was punched and amount of the pigment was measured by the following method.
The punched site was dipped in 1ml of 1N aqueous potassium hydroxide and allowed to stand overnight at 37°C. Then 9ml of a mixed solution of 0.6N H3PO4: acetone (5:13) was added and the mixture was centrifuged. The supernatant was assayed for absorption at 620 nm using an absorption spectrophotometer. The amount of the pigment was determined by calibration curve which was obtained using the known amounts of the pigment.
The test compound was dissolved in the physiological saline and intravenously administered. The control animals intravenously received the physiological saline (5ml/kg) alone.

For the compound `CCCC(F)(F)C(=O)CCC[C@H]1[C@H](O)CC(=O)[C@@H]1C/C=C\CCCC(=O)OC` [compound 1], in assay [1] (dose 10 µg/kg), the “Inhibition (%)” value is recorded as 92%. In the assay with contraction by histamine (Cavia porcellus, 0.1 h), this compound came in with a 20% effect concentration (IC20) of 300 nM and a concentration for half-maximal inhibition (IC50) of 1200 nM. Moreover, in the assay on conjunctive, the “Weight of Conjunctive (Mean±S.D.)” value amounted to 36.3 ± 2.1 mg and the “Dye (µg/part)” value was found to be 7.13±0.65 µg/part. In assay [2] (Cavia porcellus), this compound gave an IC20 of 160 nM and a half-maximal inhibitory concentration (IC50) of 500 nM.
As for `CCCC(F)(F)C(=O)CCCC1C(=O)CC(O)C1C/C=C\CCCC(=O)OC` (stereo not drawn) [Test Compound 8, 13,14-dihydro-15-dehydroxy-16-oxo-17,17-difluoro-PGD2 methyl ester], the “Inhibition (%)” value amounted to 93% in assay [1] (dose 5 µg/kg) and 84.6% in assay [3]. The “Increase in Resistance (%,mean)” value in assay [3] (complete occlusion of trachea = 100%, control 74.5) is 11.5%. In addition, the IC20 is 100 nM in the assay on contraction by histamine and 40 nM in assay [2]. Also, the 50% inhibitory concentration (IC50) in the assay with contraction by histamine turned out to be 350 nM; in assay [2], 120 nM. Further, the “Weight of Conjunctive (Mean±S.D.)” value in the assay on conjunctive came to 32.7 ± 1.8 mg. For the same compound, the “Amount(µg/site)” value in the assay with PCA reaction (amount of pigment in punched site, absorption at 620 nm, control 104.9±45.4) came to 38.0±15.9 µg/site. The “Area(mm^2)” value in the assay on PCA reaction (area of pigment-leaking site, 30 minutes after antigen, control 56.9±19.4) is recorded as 33.7±7.5 mm^2.
`CCCC(F)(F)C(=O)CCC[C@H]1C(=O)C[C@H](O)[C@@H]1C/C=C\CCCC(=O)OC` [compound 8]: in the assay with conjunctive, the “Weight of Conjunctive (Mean±S.D.)” value worked out at 38.5 ± 2.0 mg and the “Dye (µg/part)” value is on record as 7.69±0.71 µg/part.
Consider `CCCC(F)(F)C(=O)CCC[C@H]1[C@H](O)CC(=O)[C@@H]1C/C=C\CCCC(=O)O` [compound 2], for which, in assay [1] (dose 10 µg/kg), the “Inhibition (%)” value is reported as 78%. The concentration for an effect of 20% (IC20) in the assay with contraction by histamine (Cavia porcellus, 0.1 h) was determined as 300 nM; in assay [2] (Cavia porcellus) it was 300 nM. Also, the IC50 is 2000 nM with contraction by histamine (Cavia porcellus, 0.1 h) and 1000 nM in assay [2] (Cavia porcellus).
In the assay with contraction by histamine (Cavia porcellus, 0.1 h), `CCCC(F)(F)C(=O)CCC[C@H]1[C@H](O)CC(=O)[C@@H]1C/C=C\CCCC(=O)OC(C)C` [compound 3] yielded an IC20 of 500 nM and an IC50 of 2000 nM. In assay [2] (Cavia porcellus), this compound displayed an IC20 of 180 nM and an IC50 of 600 nM.
Consider `CCCC(F)(F)C(=O)CCC[C@H]1[C@H](C)CC(=O)[C@@H]1C/C=C\CCCC(=O)OC` [compound 4], for which the IC20 with contraction by histamine (Cavia porcellus, 0.1 h) amounted to 10000 nM. In assay [2] (Cavia porcellus), the 20% effect level (IC20) was put at 7000 nM and inhibition was half-maximal at 25000 nM (IC50).
With `CCCC(F)(F)C(=O)CCC[C@H]1C=CC(=O)[C@@H]1C/C=C\CCCC(=O)OC` [compound 9], in the assay on conjunctive, the “Weight of Conjunctive (Mean±S.D.)” value is 38.9 ± 1.8 mg and the “Dye (µg/part)” value is on record as 7.49±0.67 µg/part.
As to `CCCC(F)(F)C(=O)CCC[C@@H]1[C@@H](C/C=C\CCCC(=O)OC)[C@@H](O)C[C@H]1O` [compound 7], the concentration for an effect of 20% (IC20) turned out to be 17000 nM with contraction by histamine (Cavia porcellus, 0.1 h) and 4000 nM in assay [2] (Cavia porcellus). Besides, in assay [2] (Cavia porcellus), the IC50 was determined as 20000 nM.

Broadly, the IC20 is the point of the concentration-response curve where the effect stands at 20%. What is called IC50 is the concentration needed to halve the response being measured.
